Test results as given in patent publication US20070049535A1, “PREVENTIVE/REMEDY FOR DIABETIC COMPLICATIONS USING OLIGOPEPTIDE” (priority 2004, published 2007).
Like-named read-outs stand apart in the source and are kept apart here. Peptide text beside a SMILES is read from it.

Columns and labels:
[1] = system: AGE2 production by glyceraldehyde and bovine serum albumin; experiment: Inhibition of AGE2 production by glyceraldehyde and serum albumin (ELISA with anti-AGE2 polyclonal antibody); settings: read-out: IC50 of inhibition of AGE2 production; 10 mM glyceraldehyde, 10 mg/ml bovine serum albumin, phosphate buffer pH 7.4, 37° C., 3 days
Protocol: (§1) Three days later, AGE2 concentration of the reaction mixture was measured, and IC50 value of inhibition of AGE2 production by each peptide or amino acid was calculated. The AGE2 measurement was performed by the ELISA method using an anti-AGE2 polyclonal antibody prepared from rabbit, according to a conventional method.

[2] = system: AGE2 production by glyceraldehyde and bovine serum albumin; settings: pH 7.4
Protocol: as §1

[3] = AGE2-producing capability by reaction of oligopeptide with glyceraldehyde (ELISA with anti-AGE2 polyclonal antibody); assay type: biochemical; settings: for AGE2 concentration: 10 mM amino acid or peptide + 100 mM glyceraldehyde, 0.1M phosphate buffer pH 7.4, 37° C., 1 week
Protocol: To 0.1M phosphate buffer (pH 7.4) containing 10 mM of any of Lys, Lys-Lys, Lys-Lys-Lys, and Lys-Lys-Lys-Lys (SEQ ID NO: 1) was added 100 mM glyceraldehyde and the mixture was reacted at 37° C. for 1 week. One week later, the AGE2 concentration of the reaction mixture was measured.

[4] = system: serum AGE2; experiment: Serum AGE2 concentration reduction in diabetic mouse model (db/db mouse); assay type: in vivo; settings: db/db mice
Protocol: 7-Week-old male db/db mice were randomly divided into 4 groups (3 per group), distilled water, 10 mM Lys-Lys solution, 30 mM Lys-Lys solution, or 100 mM Lys-Lys solution was freely given for 10 days as drinking water, blood samples were collected from the heart, and the serum AGE2 concentration was measured.

IC50 ([2]; bovine, 3 days)	SMILES	IC50 [1]	AGE2 concentration [3]	further results
–	N=C(N)NCCC[C@H](N)C(=O)O [Arg, reference compound]	1900 µM	–	–
780 µM	NCCCC[C@H](NC(=O)[C@@H](N)CCCN=C(N)N)C(=O)O [Arg-Lys] (H-Arg-Lys-OH)	–	–	–
–	NCCCC[C@H](N)C(=O)O [Lys, reference compound]	–	0.47 U/ml	IC50 [2]: 2200 µM
–	NCCCC[C@H](NC(=O)[C@H](CCCCN)NC(=O)[C@H](CCCCN)NC(=O)[C@@H](N)CCCCN)C(=O)O [Lys-Lys-Lys-Lys] (H-KKKK-OH)	620 µM	14.2 U/ml	–
560 µM	NCCCC[C@H](NC(=O)[C@@H](N)CCCCN)C(=O)O [Lys-Lys]	–	4.7 U/ml	serum AGE2 concentration ([4]; 10 mM solution as drinking water for 10 days): 3.5 ± 0.6 U/ml; serum AGE2 concentration ([4]; 30 mM solution as drinking water for 10 days): 2.3 ± 0.4 U/ml; serum AGE2 concentration ([4]; 100 mM solution as drinking water for 10 days): 1.7 ± 0.2 U/ml; serum AGE2 concentration, dose dependence ([4]; 10-100 mM solution as drinking water for 10 days): decreased in a manner dependent on the Lys-Lys concentration; AGE2 production capacity relative to Lys alone ([3]; reaction with glyceraldehyde, versus Lys alone): about 10 times
